ChEMBL document CHEMBL2364335, “Structure-activity relationship data for chemical series of achiral agonists of the ghrelin (growth hormone secretagogue) receptor (Supplementary Bioactivity Data for publication CHEMBL1140573)”
pEC50: −log10 of the molar value.

The compounds below were run against Growth hormone secretagogue receptor type 1 (Homo sapiens, UniProt Q92847) (assay: SUPPLEMENTARY: Agonist activity at GSHR by FLIPR assay. Same assay as CHEMBL941945).
Type: functional

Sequence of Growth hormone secretagogue receptor type 1 (Q92847 whole entry): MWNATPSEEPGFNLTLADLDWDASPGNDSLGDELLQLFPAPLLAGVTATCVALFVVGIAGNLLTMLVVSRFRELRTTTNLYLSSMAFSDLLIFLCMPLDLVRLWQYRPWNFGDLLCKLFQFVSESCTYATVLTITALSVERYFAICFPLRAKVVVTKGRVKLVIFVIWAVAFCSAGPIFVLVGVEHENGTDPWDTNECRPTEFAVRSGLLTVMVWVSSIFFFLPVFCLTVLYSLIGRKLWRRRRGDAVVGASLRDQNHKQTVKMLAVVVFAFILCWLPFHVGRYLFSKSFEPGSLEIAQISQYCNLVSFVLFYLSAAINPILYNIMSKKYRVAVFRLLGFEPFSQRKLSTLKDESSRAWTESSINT

pEC50, 9.50:
COc1ccc(N2C[C@@H](C)N[C@@H](C)C2)cc1NS(=O)(=O)c1ccc(-c2ccc(C)o2)cc1Cl

pEC50, 9.30:
COc1ccc(N2C[C@@H](C)N[C@@H](C)C2)cc1NS(=O)(=O)c1ccc(-c2cc(C)cs2)cc1F
COc1ccc(N2C[C@@H](C)N[C@@H](C)C2)cc1NS(=O)(=O)c1ccc(-c2ccco2)cc1Cl

pEC50, 8.40:
Cc1ccc(N2C[C@@H](C)N[C@@H](C)C2)cc1NS(=O)(=O)c1ccc(-c2cccs2)cc1
COc1ccc(N2C[C@@H](C)N[C@@H](C)C2)cc1NS(=O)(=O)c1ccc(-c2ccc(C)s2)cc1F
COc1ccc(N2C[C@@H](C)N[C@@H](C)C2)cc1NS(=O)(=O)c1ccc(-c2ccc(C)s2)c(F)c1
COc1ccc(N2C[C@@H](C)N[C@@H](C)C2)cc1NS(=O)(=O)c1ccc(-c2csc(C)c2)cc1

pEC50, 7.70:
Cc1ccc(N2C[C@@H](C)N[C@@H](C)C2)cc1NS(=O)(=O)c1cccc2ccccc12
COc1ccc(N2C[C@@H](C)N[C@@H](C)C2)cc1NS(=O)(=O)c1ccc(-c2ccccc2F)cc1
C[C@@H]1CN(c2ccc(F)c(NS(=O)(=O)c3ccc(-c4cccs4)cc3F)c2)C[C@H](C)N1
Cc1cc(-c2cccs2)ccc1S(=O)(=O)Nc1cc(N2C[C@@H](C)N[C@@H](C)C2)ccc1F
C[C@@H]1CN(c2ccc(F)c(NS(=O)(=O)c3ccc(-c4ccoc4)cc3Cl)c2)C[C@H](C)N1
COc1ccc(N2C[C@@H](C)N[C@@H](C)C2)cc1NS(=O)(=O)c1ccc(-c2cccn2C)cc1
COc1cc(-c2ccco2)ccc1S(=O)(=O)Nc1cccc(N2C[C@@H](C)N[C@@H](C)C2)c1
COc1cc(-c2cccs2)ccc1S(=O)(=O)Nc1cccc(N2C[C@@H](C)N[C@@H](C)C2)c1

pEC50, 7.40:
COc1ccc(N2C[C@@H](C)N[C@@H](C)C2)cc1NS(=O)(=O)c1ccc(-c2csc(C)n2)s1
COc1ccc(N2C[C@@H](C)N[C@@H](C)C2)cc1NS(=O)(=O)c1cccc(-c2ccoc2)c1

pEC50, 8.90:
Cc1csc(-c2ccc(S(=O)(=O)Nc3cc(N4C[C@@H](C)N[C@@H](C)C4)ccc3C)cc2)c1
COc1ccc(NS(=O)(=O)c2ccc(-c3cc(C)cs3)cc2)cc1N1C[C@@H](C)N[C@@H](C)C1

pEC50, 7.30:
COc1ccc(N2C[C@@H](C)N[C@@H](C)C2)cc1NS(=O)(=O)c1cccc(-c2cc(C)cs2)c1
COc1ccc(N2C[C@@H](C)N[C@@H](C)C2)cc1NS(=O)(=O)c1ccc(-c2cccs2)nc1
COc1ccc(N2C[C@@H](C)N[C@@H](C)C2)cc1NS(=O)(=O)c1ccc(Cl)c2ccccc12

pEC50, 7.60:
COc1ccc(N2C[C@@H](C)N[C@@H](C)C2)cc1NS(=O)(=O)c1ccc(-c2ccc(C)s2)s1
C[C@@H]1CN(c2ccc(F)c(NS(=O)(=O)c3ccc(-c4ccoc4)cc3)c2)C[C@H](C)N1
COc1ccc(N2C[C@@H](C)N[C@@H](C)C2)cc1NS(=O)(=O)c1ccc(-c2csnn2)s1

pEC50, 8.80:
COc1ccc(NS(=O)(=O)c2ccc(-c3ccc(C)s3)s2)cc1N1C[C@@H](C)N[C@@H](C)C1
COc1ccc(N2C[C@@H](C)N[C@@H](C)C2)cc1NS(=O)(=O)c1ccc(-c2ccco2)cc1F
C[C@@H]1CN(c2ccc(Cl)c(NS(=O)(=O)c3ccc(-c4ccco4)cc3)c2)C[C@H](C)N1

pEC50, 8.30:
COc1ccc(N2C[C@@H](C)N[C@@H](C)C2)cc1NS(=O)(=O)c1ccc(-c2ccsc2)cc1C
Cc1ccc(-c2ccc(S(=O)(=O)Nc3cc(N4C[C@@H](C)N[C@@H](C)C4)ccc3O)cc2)o1

pEC50, 8.50:
COc1ccc(NS(=O)(=O)c2ccc(-c3cccs3)c(F)c2)cc1N1C[C@@H](C)N[C@@H](C)C1
COc1ccc(N2C[C@@H](C)N[C@@H](C)C2)cc1NS(=O)(=O)c1ccc(-c2ccsc2)cc1Cl
COc1ccc(N2C[C@@H](C)N[C@@H](C)C2)cc1NS(=O)(=O)c1ccc(-c2ccc(C)o2)cn1
Cc1ccc(-c2ccc(S(=O)(=O)Nc3cc(N4C[C@@H](C)N[C@@H](C)C4)ccc3O)cc2F)o1

pEC50, 7.00:
COc1ccc(N2C[C@@H](C)N[C@@H](C)C2)cc1NS(=O)(=O)c1ccc(-c2ccc(F)cc2F)cc1
COc1cc(Br)ccc1S(=O)(=O)Nc1cc(N2C[C@@H](C)N[C@@H](C)C2)ccc1F

pEC50, 6.80:
COc1ccc(N2CCN[C@@H](C)C2)cc1NS(=O)(=O)c1ccc(-c2cccs2)cc1

pEC50, 8.00:
COc1ccc(N2C[C@@H](C)N[C@@H](C)C2)cc1NS(=O)(=O)c1cccc2cccc(Cl)c12
C[C@@H]1CN(c2ccc(F)c(NS(=O)(=O)c3ccc(-c4cccs4)c(F)c3)c2)C[C@H](C)N1
C[C@@H]1CN(c2ccc(Cl)c(NS(=O)(=O)c3ccc(-c4ccccc4F)s3)c2)C[C@H](C)N1
COc1ccc(N2C[C@@H](C)N[C@@H](C)C2)cc1NS(=O)(=O)c1ccc(-c2cc(C)cs2)nc1

pEC50, 8.70:
COc1ccc(N2C[C@@H](C)N[C@@H](C)C2)cc1NS(=O)(=O)c1ccc(-c2ccco2)cc1C
COc1ccc(N2C[C@@H](C)N[C@@H](C)C2)cc1NS(=O)(=O)c1ccc(-c2csc(C)c2)c(F)c1

pEC50, 7.90:
COc1ccc(NS(=O)(=O)c2ccc(-c3ccoc3)cc2)cc1N1C[C@@H](C)N[C@@H](C)C1
COc1ccc(N2C[C@@H](C)N[C@@H](C)C2)cc1NS(=O)(=O)c1cc(C)c(-c2cccc(C)n2)s1
COc1ccc(N2C[C@@H](C)N[C@@H](C)C2)cc1NS(=O)(=O)c1ccc(-c2nccs2)cc1
COc1ccc(N2C[C@@H](C)N[C@@H](C)C2)cc1NS(=O)(=O)c1ccc(-c2ncccn2)cc1
COc1ccc(N2C[C@@H](C)N(C)[C@@H](C)C2)cc1NS(=O)(=O)c1ccc(-c2cccs2)cc1

pEC50, 7.80:
COc1ccc(N2C[C@@H](C)N[C@@H](C)C2)cc1NS(=O)(=O)c1ccc(-c2ccco2)nc1
C[C@@H]1CN(c2ccc(F)c(NS(=O)(=O)c3ccc(-c4ccoc4)c(F)c3)c2)C[C@H](C)N1
COc1ccc(N2C[C@@H](C)N[C@@H](C)C2)cc1NS(=O)(=O)c1cc(F)c(-c2ccco2)cc1F
C[C@@H]1CN(c2ccc(O)c(NS(=O)(=O)c3ccc(-c4ccco4)cc3)c2)C[C@H](C)N1

pEC50, 8.10:
COc1ccc(N2C[C@@H](C)N[C@@H](C)C2)cc1NS(=O)(=O)c1ccc(-c2cccc(C)n2)cc1F
C[C@@H]1CN(c2ccc(F)c(NS(=O)(=O)c3ccc(-c4cccs4)cc3Cl)c2)C[C@H](C)N1
COc1ccc(N2C[C@@H](C)N[C@@H](C)C2)cc1NS(=O)(=O)c1ccc(-c2ccsc2)c(C)c1
COc1ccc(N2C[C@@H](C)N[C@@H](C)C2)cc1NS(=O)(=O)c1ccc(-c2ccc(C)o2)nc1

pEC50, 8.60:
COc1ccc(N2C[C@@H](C)N[C@@H](C)C2)cc1NS(=O)(=O)c1ccc(-c2cccc(Cl)c2)cc1
COc1ccc(N2C[C@@H](C)N[C@@H](C)C2)cc1NS(=O)(=O)c1ccc(-c2csc(C)c2)cc1F

pEC50, 7.20:
COc1ccc(N2C[C@@H](C)N[C@@H](C)C2)cc1NS(=O)(=O)c1cc(C)c(-c2ccccc2F)s1
Cc1cc(S(=O)(=O)Nc2cc(N3C[C@@H](C)N[C@@H](C)C3)ccc2F)ccc1Br

pEC50, 9.40:
COc1ccc(N2C[C@@H](C)N[C@@H](C)C2)cc1NS(=O)(=O)c1ccc(-c2cc(C)cs2)cc1C

pEC50, 8.20:
COc1ccc(N2C[C@@H](C)N[C@@H](C)C2)cc1NS(=O)(=O)c1ccc(-c2cccc(C)n2)cc1C
COc1ccc(N2C[C@@H](C)N[C@@H](C)C2)cc1NS(=O)(=O)c1ccc(-c2ccc(C)s2)c(C)c1
COc1cc(-c2cc(C)cs2)ccc1S(=O)(=O)Nc1cccc(N2C[C@@H](C)N[C@@H](C)C2)c1
C[C@@H]1CN(c2ccc(O)c(NS(=O)(=O)c3ccc(-c4ccccc4F)s3)c2)C[C@H](C)N1

pEC50, 7.50:
COc1ccc(N2C[C@@H](C)N[C@@H](C)C2)cc1NS(=O)(=O)c1ccc(-c2cccc(F)c2F)cc1
C[C@@H]1CN(c2ccc(F)c(NS(=O)(=O)c3ccc(-c4ccccc4)cc3)c2)C[C@H](C)N1
Cc1cc(-c2ccoc2)ccc1S(=O)(=O)Nc1cc(N2C[C@@H](C)N[C@@H](C)C2)ccc1F
COc1ccc(N2C[C@@H](C)N[C@@H](C)C2)cc1NS(=O)(=O)c1ccc2c(c1)CCC(C)(C)O2
COc1ccc(N2C[C@@H](C)N[C@@H](C)C2)cc1NS(=O)(=O)c1ccc(-c2cnccn2)cc1
COc1ccc(N2CCN[C@H](C)C2)cc1NS(=O)(=O)c1ccc(-c2cccs2)cc1

pEC50, 7.10:
COc1ccc(N2C[C@@H](C)N[C@@H](C)C2)cc1NS(=O)(=O)c1ccc(-c2cccc(C)n2)c(F)c1
COc1ccc(N2C[C@@H](C)N[C@@H](C)C2)cc1NS(=O)(=O)c1ccc2c(c1)OCCN2C
